Experimental data: ChEMBL document CHEMBL5518167, “Degradation of Polo-like Kinase 1 by the Novel Poly-Arginine N-Degron Pathway PROTAC Regulates Tumor Growth in Nonsmall Cell Lung Cancer” (J Med Chem, 2024)
The source made the active and inactive calls. The rule behind the calls is not given here. Where a SMILES comes first, the peptide text is derived from it.

Assays:
[1] = In vivo induction of PLK1 degradation in nude mouse xenografted with human NCI-H1975 cells assessed as reduction in PLK1 protein expression at 5 mg/kg, iv administered for every 3 days by Western blotting analysis; type: functional; set-up: scale not given: the % may be the effect or the level left
UBR/PLK1 (Homo sapiens) [2] = experiment: Protac activity at UBR/PLK1 in human HeLa cells assessed as PLK1 degradation at 50 uM incubated for 24 hrs by immunoblotting analysis
UBR/PLK1 (Homo sapiens) [3] = experiment: Protac activity at UBR/PLK1 in human HeLa cells assessed as PLK1 degradation at 50 uM preincubated for 24 hrs followed by MG132 addition for 8 hrs by immunoblotting analysis; conditions: time 32.0 hrs
UBR/PLK1 (Homo sapiens) [4] = experiment: Protac activity at UBR/PLK1 in human HeLa cells assessed as PLK1 degradation at 75 uM incubated for 24 hrs by immunoblotting analysis
UBR/PLK1 (Homo sapiens) [5] = experiment: Protac activity at UBR/PLK1 in human HeLa cells assessed as PLK1 degradation incubated for 24 hrs by immunoblotting analysis; conditions: dose 25-100 µM
[6] = target: E3 ubiquitin-protein ligase UBR1 (Homo sapiens) (UniProt Q8IWV7); experiment: Binding affinity to UBR1 (unknown origin) expressed in HEK293T cells incubated for 3 hrs by pull-down assay; type: cell-based
Sequence of E3 ubiquitin-protein ligase UBR1 (Homo sapiens) (Q8IWV7 whole entry): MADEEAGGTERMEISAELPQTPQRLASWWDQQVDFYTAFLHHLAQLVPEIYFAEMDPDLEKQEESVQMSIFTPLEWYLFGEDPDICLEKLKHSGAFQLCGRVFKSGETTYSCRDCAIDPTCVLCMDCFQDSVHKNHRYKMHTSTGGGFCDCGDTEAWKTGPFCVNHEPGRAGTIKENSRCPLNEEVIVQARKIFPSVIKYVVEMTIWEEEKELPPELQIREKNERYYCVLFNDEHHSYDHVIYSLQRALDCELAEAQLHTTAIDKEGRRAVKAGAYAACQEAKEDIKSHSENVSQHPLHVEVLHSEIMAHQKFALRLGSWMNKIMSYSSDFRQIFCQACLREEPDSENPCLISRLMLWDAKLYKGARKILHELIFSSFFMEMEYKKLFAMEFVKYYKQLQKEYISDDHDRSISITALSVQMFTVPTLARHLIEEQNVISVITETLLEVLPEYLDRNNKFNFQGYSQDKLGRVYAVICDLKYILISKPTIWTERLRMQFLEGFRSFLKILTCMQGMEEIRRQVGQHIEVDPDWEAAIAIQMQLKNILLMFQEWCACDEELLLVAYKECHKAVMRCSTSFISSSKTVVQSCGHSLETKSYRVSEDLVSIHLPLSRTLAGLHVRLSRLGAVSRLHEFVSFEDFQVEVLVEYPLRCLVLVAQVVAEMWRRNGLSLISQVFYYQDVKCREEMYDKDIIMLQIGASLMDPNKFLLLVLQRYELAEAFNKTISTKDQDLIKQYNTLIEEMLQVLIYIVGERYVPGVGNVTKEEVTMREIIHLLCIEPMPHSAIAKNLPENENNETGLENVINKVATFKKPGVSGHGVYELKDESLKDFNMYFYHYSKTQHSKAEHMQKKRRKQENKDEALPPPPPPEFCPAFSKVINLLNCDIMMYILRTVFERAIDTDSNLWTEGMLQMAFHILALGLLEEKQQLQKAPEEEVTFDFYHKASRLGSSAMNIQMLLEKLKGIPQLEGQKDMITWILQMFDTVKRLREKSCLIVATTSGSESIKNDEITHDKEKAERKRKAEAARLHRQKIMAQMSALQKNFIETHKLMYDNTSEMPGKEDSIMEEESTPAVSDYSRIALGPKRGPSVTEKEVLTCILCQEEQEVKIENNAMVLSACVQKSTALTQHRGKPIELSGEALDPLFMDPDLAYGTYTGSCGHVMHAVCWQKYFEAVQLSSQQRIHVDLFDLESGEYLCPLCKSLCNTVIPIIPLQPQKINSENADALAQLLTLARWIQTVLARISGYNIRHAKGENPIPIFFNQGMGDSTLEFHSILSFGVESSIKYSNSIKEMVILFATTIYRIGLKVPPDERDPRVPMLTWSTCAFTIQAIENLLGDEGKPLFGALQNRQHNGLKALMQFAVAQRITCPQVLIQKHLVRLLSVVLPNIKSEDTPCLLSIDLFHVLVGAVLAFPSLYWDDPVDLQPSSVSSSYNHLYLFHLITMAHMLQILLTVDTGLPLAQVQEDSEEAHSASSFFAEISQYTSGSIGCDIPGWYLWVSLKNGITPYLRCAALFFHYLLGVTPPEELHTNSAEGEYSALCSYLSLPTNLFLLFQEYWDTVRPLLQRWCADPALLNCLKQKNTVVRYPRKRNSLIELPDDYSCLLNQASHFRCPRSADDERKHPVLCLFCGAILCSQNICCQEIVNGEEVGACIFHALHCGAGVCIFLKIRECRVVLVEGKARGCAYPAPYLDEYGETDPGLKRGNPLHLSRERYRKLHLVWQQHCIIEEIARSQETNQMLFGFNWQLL

UBR/PLK1 (Homo sapiens) [7] = experiment: Protac activity at UBR/PLK1 in human HeLa cells assessed as PLK1 degradation at 50 uM after 24 to 48 hrs by immunoblotting analysis; conditions: time 24-48 hrs
[8] = target: E3 ubiquitin-protein ligase UBR2 (Homo sapiens) (UniProt Q8IWV8); experiment: Binding affinity to UBR2 (unknown origin) expressed in HEK293T cells incubated for 3 hrs by pull-down assay; type: cell-based
Sequence of E3 ubiquitin-protein ligase UBR2 (Homo sapiens) (Q8IWV8 whole entry): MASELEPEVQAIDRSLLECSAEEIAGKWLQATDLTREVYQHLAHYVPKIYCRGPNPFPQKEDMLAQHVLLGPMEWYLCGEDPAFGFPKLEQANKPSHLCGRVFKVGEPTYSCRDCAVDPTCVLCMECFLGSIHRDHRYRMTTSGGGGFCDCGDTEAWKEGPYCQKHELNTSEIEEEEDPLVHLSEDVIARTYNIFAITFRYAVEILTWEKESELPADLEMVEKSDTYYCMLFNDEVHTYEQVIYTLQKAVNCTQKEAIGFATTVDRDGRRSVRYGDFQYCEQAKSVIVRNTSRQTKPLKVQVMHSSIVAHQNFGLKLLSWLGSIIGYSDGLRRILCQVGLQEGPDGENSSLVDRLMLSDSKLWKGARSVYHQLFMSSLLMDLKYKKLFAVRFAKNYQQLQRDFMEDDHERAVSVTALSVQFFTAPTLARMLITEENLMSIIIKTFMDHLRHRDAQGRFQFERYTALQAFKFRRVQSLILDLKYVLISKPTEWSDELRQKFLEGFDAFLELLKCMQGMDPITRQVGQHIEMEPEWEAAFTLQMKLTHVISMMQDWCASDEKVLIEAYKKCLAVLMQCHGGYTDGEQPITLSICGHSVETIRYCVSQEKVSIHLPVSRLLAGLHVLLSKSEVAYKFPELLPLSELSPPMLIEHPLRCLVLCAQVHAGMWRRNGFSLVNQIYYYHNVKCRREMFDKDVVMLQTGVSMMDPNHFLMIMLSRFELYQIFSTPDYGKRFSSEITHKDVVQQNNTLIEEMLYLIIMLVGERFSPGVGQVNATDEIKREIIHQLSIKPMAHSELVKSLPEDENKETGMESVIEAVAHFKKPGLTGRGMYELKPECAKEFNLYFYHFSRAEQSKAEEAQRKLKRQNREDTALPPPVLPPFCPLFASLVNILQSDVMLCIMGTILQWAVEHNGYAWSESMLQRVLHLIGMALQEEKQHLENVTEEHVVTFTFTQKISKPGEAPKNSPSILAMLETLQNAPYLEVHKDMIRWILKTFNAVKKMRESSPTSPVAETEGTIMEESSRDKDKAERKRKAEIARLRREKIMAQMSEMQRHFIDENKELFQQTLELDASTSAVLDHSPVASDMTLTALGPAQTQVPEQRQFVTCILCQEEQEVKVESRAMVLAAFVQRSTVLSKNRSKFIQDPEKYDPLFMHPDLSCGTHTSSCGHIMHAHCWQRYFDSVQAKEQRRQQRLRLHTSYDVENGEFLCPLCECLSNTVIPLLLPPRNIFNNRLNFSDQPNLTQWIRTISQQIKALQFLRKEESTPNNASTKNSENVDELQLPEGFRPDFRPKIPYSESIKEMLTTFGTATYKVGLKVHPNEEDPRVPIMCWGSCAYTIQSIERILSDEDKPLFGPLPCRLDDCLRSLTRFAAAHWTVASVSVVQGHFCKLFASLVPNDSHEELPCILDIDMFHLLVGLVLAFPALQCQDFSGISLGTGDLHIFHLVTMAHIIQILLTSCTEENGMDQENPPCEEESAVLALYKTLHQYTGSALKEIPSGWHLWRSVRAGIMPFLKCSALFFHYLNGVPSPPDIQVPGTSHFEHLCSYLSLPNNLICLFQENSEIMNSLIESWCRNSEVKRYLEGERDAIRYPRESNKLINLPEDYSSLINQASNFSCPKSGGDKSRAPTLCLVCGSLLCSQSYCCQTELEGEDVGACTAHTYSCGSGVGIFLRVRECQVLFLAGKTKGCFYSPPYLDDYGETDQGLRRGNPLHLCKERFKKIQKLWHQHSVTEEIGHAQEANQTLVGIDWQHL

UBR/PLK1 (Homo sapiens) [9] = experiment: Protac activity at UBR/PLK1 in human HeLa cells assessed as PLK1 degradation at 100 uM incubated for 24 hrs by immunoblotting analysis
UBR/PLK1 (Homo sapiens) [10] = experiment: Protac activity at UBR/PLK1 in human HeLa cells assessed as PLK1 degradation at 50 uM by immunoblotting analysis; conditions: time 2-48 hrs, TDE = time-dependent effect
A549 [11] = experiment: Cytotoxicity against human A549 cells at 0.8 to 50 uM incubated for 24 hrs by MTT assay; type: functional, cell-based; conditions: dose 0.8-50 µM
PC-9 [12] = experiment: Cytotoxicity against human PC-9 cells at 0.8 to 50 uM incubated for 24 hrs by MTT assay; type: functional, cell-based; conditions: dose 0.8-50 µM
NCI-H1975 [13] = experiment: Cytotoxicity against human NCI-H1975 cells assessed as change in morphology at 25 uM incubated for 24 hrs by phase contrast microscopic assay; type: functional, cell-based
A549 [14] = experiment: Cytotoxicity against human A549 cells assessed as change in morphology at 25 uM incubated for 24 hrs by phase contrast microscopic assay; type: functional, cell-based
A549 [15] = experiment: Induction of cell cycle arrest in human A549 cells at 10 uM incubated for 24 hrs by PI staining based flow cytometry analysis; type: functional
HeLa [16] = experiment: Induction of cell cycle arrest in human HeLa cells at 10 uM incubated for 24 hrs by PI staining based flow cytometry analysis; type: functional
NCI-H1975 [17] = experiment: Cytotoxicity against human NCI-H1975 cells at 0.8 to 50 uM incubated for 24 hrs by MTT assay; type: functional, cell-based; conditions: dose 0.8-50 µM
NCI-H1975 [18] = experiment: Induction of cell cycle arrest in human NCI-H1975 cells at 10 uM incubated for 24 hrs by PI staining based flow cytometry analysis; type: functional
HeLa [19] = experiment: Cytotoxicity against human HeLa cells assessed as change in morphology at 18 uM incubated for 24 hrs by phase contrast microscopic assay; type: functional, cell-based
PC-9 [20] = experiment: Cytotoxicity against human PC-9 cells assessed as change in morphology at 25 uM incubated for 24 hrs by phase contrast microscopic assay; type: functional, cell-based
PC-9 [21] = experiment: Induction of cell cycle arrest in human PC-9 cells at 10 uM incubated for 24 hrs by PI staining based flow cytometry analysis; type: functional
[22] = target: Serine/threonine-protein kinase PLK1 (Homo sapiens, UniProt P53350); experiment: Binding affinity to PLK1 PBD (unknown origin) by ITC method
Sequence of Serine/threonine-protein kinase PLK1 (P53350 whole entry): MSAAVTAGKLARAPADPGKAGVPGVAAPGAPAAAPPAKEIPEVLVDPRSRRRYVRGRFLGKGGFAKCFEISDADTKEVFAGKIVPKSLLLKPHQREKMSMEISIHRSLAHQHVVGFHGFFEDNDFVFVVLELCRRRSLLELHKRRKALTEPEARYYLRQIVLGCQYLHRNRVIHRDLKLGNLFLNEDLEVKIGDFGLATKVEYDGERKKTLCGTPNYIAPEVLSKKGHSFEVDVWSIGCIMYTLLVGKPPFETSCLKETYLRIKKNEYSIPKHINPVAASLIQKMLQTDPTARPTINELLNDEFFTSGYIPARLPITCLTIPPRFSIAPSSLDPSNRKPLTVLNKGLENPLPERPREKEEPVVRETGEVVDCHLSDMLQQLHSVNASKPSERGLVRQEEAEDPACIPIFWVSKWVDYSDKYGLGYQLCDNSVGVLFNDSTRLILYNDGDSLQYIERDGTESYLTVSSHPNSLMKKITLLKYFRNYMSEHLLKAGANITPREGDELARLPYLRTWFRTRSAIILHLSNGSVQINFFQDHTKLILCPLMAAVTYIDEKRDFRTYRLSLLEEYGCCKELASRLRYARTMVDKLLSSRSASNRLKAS

SMILES: C=CC(=O)Nc1cc(Nc2nccc(-c3cn(C)c4ccccc34)n2)c(OC)cc1N(C)CCN(C)C [OSIMERTINIB]
- Activity [1]: >60%

SMILES: CC(C)C[C@H](NC(=O)[C@H]1CCCN1C(=O)CCCCCNC(=O)[C@H](CCCNC(=N)N)NC(=O)[C@H](CCCNC(=N)N)NC(=O)[C@H](CCCNC(=N)N)NC(=O)[C@H](CCCNC(=N)N)NC(=O)[C@H](CCCNC(=N)N)NC(=O)[C@H](CCCNC(=N)N)NC(=O)[C@H](CCCNC(=N)N)NC(=O)[C@H](CCCNC(=N)N)NC(=O)[C@H](CCCNC(=N)N)NC(=O)[C@H](CCCNC(=N)N)NC(=O)[C@H](CCCNC(=N)N)NC(=O)[C@@H](N)CCCNC(=N)N)C(=O)N[C@@H](Cc1cnc[nH]1)C(=O)N[C@@H](CO)C(=O)N[C@H](C(N)=O)[C@@H](C)OP(=O)(O)O
- Activity (UBR/PLK1 (Homo sapiens) [2]): 60%
- Activity (UBR/PLK1 (Homo sapiens) [3]): inactive
- Activity (UBR/PLK1 (Homo sapiens) [4]): 70%
- Activity (UBR/PLK1 (Homo sapiens) [5]): Dose-Dependent Effect
- Activity [6]: Active
- Activity (UBR/PLK1 (Homo sapiens) [7]): 90%
- Activity [8]: Active
- Activity (UBR/PLK1 (Homo sapiens) [9]): 70%
- Activity (UBR/PLK1 (Homo sapiens) [10]): Tde

SMILES: N=C(N)NCCC[C@H](NC(=O)[C@H](CCCNC(=N)N)NC(=O)[C@H](CCCNC(=N)N)NC(=O)[C@H](CCCNC(=N)N)NC(=O)[C@H](CCCNC(=N)N)NC(=O)[C@H](CCCNC(=N)N)NC(=O)[C@H](CCCNC(=N)N)NC(=O)[C@H](CCCNC(=N)N)NC(=O)[C@H](CCCNC(=N)N)NC(=O)[C@H](CCCNC(=N)N)NC(=O)[C@H](CCCNC(=N)N)NC(=O)[C@@H](N)CCCNC(=N)N)C(N)=O
- Activity (A549 [11]): inactive
- Activity (PC-9 [12]): inactive
- Activity (NCI-H1975 [13]): inactive
- Activity (A549 [14]): inactive
- Activity (A549 [15]): inactive
- Activity (HeLa [16]): inactive
- Activity (NCI-H1975 [17]): inactive
- Activity (NCI-H1975 [18]): inactive
- Activity (HeLa [19]): inactive
- Activity (PC-9 [20]): inactive
- Activity (PC-9 [21]): inactive

SMILES: C[C@@H](OP(=O)(O)O)[C@@H]1NC(=O)[C@H](Cc2cncn2CCCCCCCCc2ccccc2)NC(=O)[C@@H](N)CCC(=O)NCCCC[C@@H](C(N)=O)NC1=O (HELM PEPTIDE1{E.[O=C([C@H](Cc1cncn1CCCCCCCCc1ccccc1)N[*:1])[*:2]].[C[C@@H](OP(=O)(O)O)[C@H](N[*:1])C(=O)[*:2]].K.[am]}$PEPTIDE1,PEPTIDE1,1:R3-4:R3$$$V2.0)
- Activity (A549 [11]): inactive
- Activity (PC-9 [12]): inactive
- Activity (NCI-H1975 [13]): inactive
- Activity (A549 [14]): inactive
- Activity (NCI-H1975 [17]): inactive
- Activity (HeLa [19]): inactive
- Activity (PC-9 [20]): inactive

SMILES: CC(C)C[C@H](NC(=O)[C@@H]1CCCN1C(=O)CCCCCNC(=O)[C@H](CCCNC(=N)N)NC(=O)[C@H](CCCNC(=N)N)NC(=O)[C@H](CCCNC(=N)N)NC(=O)[C@H](CCCNC(=N)N)NC(=O)[C@H](CCCNC(=N)N)NC(=O)[C@H](CCCNC(=N)N)NC(=O)[C@H](CCCNC(=N)N)NC(=O)[C@H](CCCNC(=N)N)NC(=O)[C@H](CCCNC(=N)N)NC(=O)[C@H](CCCNC(=N)N)NC(=O)[C@H](CCCNC(=N)N)NC(=O)[C@@H](N)CCCNC(=N)N)C(=O)N[C@@H](Cc1cnc[nH]1)C(=O)N[C@@H](CO)C(=O)N[C@H](C(N)=O)[C@@H](C)OP(=O)(O)O
- Kd [22]: 2.2 µM
